The text below walks through data of patent publication US20240092799A1, “MNK INHIBITORS” (Hepagene Therapeutics (HK) Limited, priority 2020, published 2024).

pIC50: −log10 of the molar value.

MNK2, sequence (Q9HBH9 whole entry): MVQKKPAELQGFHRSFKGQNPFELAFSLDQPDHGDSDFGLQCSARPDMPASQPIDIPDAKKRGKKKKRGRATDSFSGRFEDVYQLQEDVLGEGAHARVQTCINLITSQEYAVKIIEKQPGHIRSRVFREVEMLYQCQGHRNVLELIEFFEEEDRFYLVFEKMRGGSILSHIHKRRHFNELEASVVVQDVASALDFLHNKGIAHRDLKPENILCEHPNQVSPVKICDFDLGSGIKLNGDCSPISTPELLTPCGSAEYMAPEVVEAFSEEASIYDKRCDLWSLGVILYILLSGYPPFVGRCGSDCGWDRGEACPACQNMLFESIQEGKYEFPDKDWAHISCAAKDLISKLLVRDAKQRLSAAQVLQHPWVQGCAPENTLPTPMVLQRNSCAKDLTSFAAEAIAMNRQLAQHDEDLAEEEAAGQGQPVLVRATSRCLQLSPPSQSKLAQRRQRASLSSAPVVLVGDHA

The experiment has as its target MNK2 (Homo sapiens (Human), UniProt Q9HBH9). As to the kind of experiment: MNK Biochemical Enzymatic Assay (ADP-Glo), MNK2 binding assay. Here is the method:
MNK Biochemical Enzymatic Assay. This protocol establishes the binding assays for MNK1 and MNK2 using ADP-Glo assay. MNK phosphorylates the substrate and converts ATP to ADP, which was detected by Envision and used to reflect the reminding activity of MNK. Reagents and equipment used in the assay are listed below, followed by the protocol.
• a) Add 50 μL compound to 384-well dilution plate • b) Dilute compound 1:3 in succession in DMSO for each column for 10+0 pts (refer to dilution plate map) • c) Transfer 0.1 μL diluted compound solution in each row to 384 assay plate using Echo, each column containing 2 replicates (refer to assay plate map) • d) Add 5 μL enzyme working solution to 384-well assay plate, centrifuge 1000 RPM for 1 min • e) Incubate at 25° C. for 15 min • f) Add 5 μL substrate working solution to initiate reaction • g) Incubate at 25° C. for 60 min • h) Add 10 μL ADP Glo reagent, centrifuge 1000 RPM for 1 min • i) Incubate at 25° C. for 60 min • j) Add 20 μL kinase detection reagent, centrifuge 1000 RPM for 1 min • k) Incubate at 25° C. for 60 min • l) Read on Envision for US LUM as RLU • m) Data analysis: IC50s were determined based on a non-linear regression analysis of data collected.
In general, pIC50 refers to the negative decadic logarithm of the IC50, by convention in mol/L. A low value points to a high IC50. `Cc1cc(Nc2cc(Nc3ccccc3F)ncn2)[n+]([O-])c2c1C(=O)NC21CCCCC1` [Compound XXIX-AI, 2′-((6-((2-fluorophenyl)amino)pyrimidin-4-yl)amino)-4′-methyl-5′-oxo-5′,6′-dihydrospiro[cyclohexane-1,7′-pyrrolo[3,4-b]pyridine] 1′-oxide] showed a negative logarithm of the IC50 (pIC50) of 7.00 to 8.00. With `Cc1cc(Nc2cc(Nc3cccnc3)ncn2)[n+]([O-])c2c1C(=O)NC21CCCCC1` [Compound XXIX-AJ, 4′-methyl-5′-oxo-2′-((6-(pyridin-3-ylamino)pyrimidin-4-yl)amino)-5′,6′-dihydrospiro[cyclohexane-1,7′-pyrrolo[3,4-b]pyridine] 1′-oxide], the pIC50 was 7.00 to 8.00. As to `Cc1cc(Nc2cc(Nc3ccncc3)ncn2)[n+]([O-])c2c1C(=O)NC21CCCCC1` [Compound XXIX-AK, 4′-methyl-5′-oxo-2′-{[6-(pyridin-4-ylamino)pyrimidin-4-yl]amino}-6′H-Spiro[cyclohexane-1,7′-pyrrolo[3,4-b]pyridin]-1′-ium-1′-olate], the pIC50 is 7.00 to 8.00. Next, `Cc1cc(Nc2ncnc(Nc3ccccn3)c2C)[n+]([O-])c2c1C(=O)NC21CCCCC1` [Compound XXIX-AN, 4′-methyl-2′-((5-methyl-6-(pyridin-2-ylamino)pyrimidin-4-yl)amino)-5′-oxo-5′,6′-dihydrospiro[cyclohexane-1,7′-pyrrolo[3,4-b]pyridine] 1′-oxide]: less than 6.00. The value for `Cc1cc(Nc2cc(NC(=O)N3CCCC3)ncn2)[n+]([O-])c2c1C(=O)NC21CCCCC1` [Compound XXIX-AQ, 4′-methyl-5′-oxo-2′-((6-(pyrrolidine-1-carboxamido)pyrimidin-4-yl)amino)-5′,6′-dihydrospiro[cyclohexane-1,7′-pyrrolo[3,4-b]pyridine] 1′-oxide] was 7.00 to 8.00. The value for `Cc1cc(Nc2cc(NC3CCS(=O)(=O)C3)ncn2)[n+]([O-])c2c1C(=O)NC21CCCCC1` (centres unmarked) [Compound XXIX-AR, 2′-((6-((1,1-dioxidotetrahydrothiophen-3-yl)amino)pyrimidin-4-yl)amino)-4′-methyl-5′-oxo-5′,6′-dihydrospiro[cyclohexane-1,7′-pyrrolo[3,4-b]pyridine] 1′-oxide] was 6.00 to 7.00.

`Cc1cc(Nc2cc(NCC3CCOC3)ncn2)[n+]([O-])c2c1C(=O)NC21CCCCC1` (centres unmarked) [Compound XXIX-AV, 4′-methyl-5′-oxo-2′-((6-(((tetrahydrofuran-3-yl)methyl)amino)pyrimidin-4-yl)amino)-5′,6′-dihydrospiro[cyclohexane-1,7′-pyrrolo[3,4-b]pyridine] 1′-oxide]: the pIC50 is 7.00 to 8.00. Next, `Cc1cc(Nc2cc(N[C@@H]3CCOC3)ncn2)[n+]([O-])c2c1C(=O)NC21CCCCC1` [Compound XXIX-AX, (R)-4′-methyl-5′-oxo-2′-((6-((tetrahydrofuran-3-yl)amino)pyrimidin-4-yl)amino)-5′,6′-dihydrospiro[cyclohexane-1,7′-pyrrolo[3,4-b]pyridine] 1′-oxide]: 7.00 to 8.00; `Cc1nc(Nc2cc(C)c3c([n+]2[O-])C2(CCCCC2)NC3=O)cc(N[C@H]2CCOC2)n1` [Compound XXIX-AY, (S)-4′-methyl-2′-((2-methyl-6-((tetrahydrofuran-3-yl)amino)pyrimidin-4-yl)amino)-5′-oxo-5′,6′-dihydrospiro[cyclohexane-1,7′-pyrrolo[3,4-b]pyridine] 1′-oxide]: 7.00 to 8.00. The value for `Cc1cccnc1Nc1cc(Nc2cc(C)c3c([n+]2[O-])C2(CCCCC2)NC3=O)ncn1` [Compound XXIX-AZ, 4′-methyl-2′-((6-((3-methylpyridin-2-yl)amino)pyrimidin-4-yl)amino)-5′-oxo-5′,6′-dihydrospiro[cyclohexane-1,7′-pyrrolo[3,4-b]pyridine] 1′-oxide] was 7.00 to 8.00. The value for `COCCNc1cc(Nc2cc(C)c3c([n+]2[O-])C2(CCCCC2)NC3=O)ncn1` [Compound XXIX-B, 2′-((6-((2-methoxyethyl)amino)pyrimidin-4-yl)amino)-4′-methyl-5′-oxo-5′,6′-dihydrospiro[cyclohexane-1,7′-pyrrolo[3,4-b]pyridine] 1′-oxide] was 7.00 to 8.00.
